Results published in PMC7216583 (Parasites & Vectors, 2020).
“And” between values parts separate entries of the source, which are not always exact repeats. Identical values can stand only once. Like-named read-outs stand apart in the source and are kept apart here.

Experiments:
CFTR = tested on: CFTR; parameters: method as in S-inhibitor; conditions: ref S-inhibitor; cited from earlier work
[1] = tested on: Toxoplasma gondii RH-2F tachyzoites; assay: microbe, parasite or virus in culture; conditions: 72 h
MEK1 = tested on: MEK1; parameters: method as in library vendor description; conditions: ref library vendor description; cited from earlier work
[2] = tested on: Toxoplasma gondii RH-2F tachyzoites; conditions: preliminary screen, mean
CDK4 = tested on: CDK4; parameters: method as in S-inhibitor; conditions: ref S-inhibitor; cited from earlier work
CDK6 = tested on: CDK6; parameters: method as in S-inhibitor; conditions: ref S-inhibitor; cited from earlier work
in vitro = conditions: human; for viability at 72 h: Host viability (%) mean
VEGFR2 = tested on: VEGFR2; parameters: method as in S-inhibitor; conditions: ref S-inhibitor; cited from earlier work
PDGFRα = tested on: PDGFRα; parameters: method as in S-inhibitor; conditions: ref S-inhibitor; cited from earlier work
PDGFRβ = tested on: PDGFRβ; parameters: method as in S-inhibitor; conditions: ref S-inhibitor; cited from earlier work
VEGFR1 = tested on: VEGFR1; parameters: method as in S-inhibitor; conditions: ref S-inhibitor; cited from earlier work
some cell lines = tested on: some cell lines; parameters: method as in S-inhibitor; conditions: ref S-inhibitor; cited from earlier work
ATM = tested on: ATM; parameters: method as in S-inhibitor; conditions: ref S-inhibitor; cited from earlier work
phosphodiesterase = target: phosphodiesterase; parameters: method as in S-inhibitor; conditions: ref S-inhibitor; cited from earlier work
CDK1/cyclin B = tested on: CDK1/cyclin B; parameters: method as in S-inhibitor; conditions: ref S-inhibitor; cited from earlier work
CDK3/Cyclin E = conditions: read-out: IC50, CDK3/Cyclin E; ref S-inhibitor; cited from earlier work
CDK4/cyclin D1 = conditions: read-out: IC50, CDK4/Cyclin D1; ref S-inhibitor; cited from earlier work
CDK5/p35 = conditions: read-out: IC50, CDK5/p35; ref S-inhibitor; cited from earlier work
CDK6/Cyclin D3 = conditions: read-out: IC50, CDK6/Cyclin D3; ref S-inhibitor; cited from earlier work
PDPK1 = target: PDPK1; parameters: method as in S-inhibitor; conditions: ref S-inhibitor; cited from earlier work
CB2 = target: CB2; parameters: method as in S-inhibitor; conditions: ref S-inhibitor; cited from earlier work
c-Met = tested on: c-Met; parameters: method as in S-inhibitor; conditions: ref S-inhibitor; cited from earlier work
Ron = tested on: Ron; parameters: method as in S-inhibitor; conditions: ref S-inhibitor; cited from earlier work
Tyro3 = tested on: Tyro3; parameters: method as in S-inhibitor; conditions: ref S-inhibitor; cited from earlier work
[3] = tested on: LPS-induced TNF-α release; parameters: method as in S-inhibitor; conditions: ref S-inhibitor; cited from earlier work
GSK-3β = tested on: GSK-3β; parameters: method as in S-inhibitor; conditions: ref S-inhibitor; cited from earlier work
LAP = tested on: LAP; parameters: method as in S-inhibitor; conditions: ref S-inhibitor; cited from earlier work
PuSA = tested on: PuSA; parameters: method as in S-inhibitor; conditions: ref S-inhibitor; cited from earlier work
Aminopeptidase N = target: Aminopeptidase N; parameters: method as in S-inhibitor; conditions: ref S-inhibitor; cited from earlier work
BACE1 = tested on: BACE1; parameters: method as in S-inhibitor; conditions: two values given; ref S-inhibitor; cited from earlier work
Aβ secretion = tested on: Aβ secretion; parameters: method as in S-inhibitor; conditions: ref S-inhibitor; read-out: EC50, decrease of Aβ secretion; cited from earlier work
S6K1 = tested on: S6K1; parameters: method as in S-inhibitor; conditions: ref S-inhibitor; cited from earlier work
MSK1 = tested on: MSK1; parameters: method as in S-inhibitor; conditions: ref S-inhibitor; cited from earlier work
PKA = tested on: PKA; parameters: method as in S-inhibitor; conditions: ref S-inhibitor; cited from earlier work
PKBα = tested on: PKBα; parameters: method as in S-inhibitor; conditions: ref S-inhibitor; cited from earlier work
MAPKAP-K1b = tested on: MAPKAP-K1b; parameters: method as in S-inhibitor; conditions: ref S-inhibitor; cited from earlier work
Tie2 = tested on: Tie2; parameters: method as in S-inhibitor; conditions: ref S-inhibitor; cited from earlier work
MEK5 = tested on: MEK5; parameters: method as in S-inhibitor; conditions: ref S-inhibitor; cited from earlier work
hSGLT2 = conditions: read-out: EC50, hSGLT2; ref S-inhibitor; cited from earlier work
Abl = tested on: Abl; parameters: method as in library vendor description; conditions: ref library vendor description; cited from earlier work
HSP90β = tested on: HSP90β; parameters: method as in S-inhibitor; conditions: ref S-inhibitor; cited from earlier work
v-Abl = tested on: v-Abl; parameters: method as in library vendor description; conditions: ref library vendor description; cited from earlier work
reverse transcriptase = conditions: read-out: IC50, reverse transcriptase; ref S-inhibitor; cited from earlier work
[4] = tested on: HCV NS3-4A serine protease; parameters: method as in S-inhibitor; conditions: ref S-inhibitor; cited from earlier work
γ-secretase = target: γ-secretase; parameters: method as in S-inhibitor; conditions: ref S-inhibitor, cited from earlier work
Notch signaling = tested on: Notch signaling; parameters: method as in S-inhibitor; conditions: ref S-inhibitor; cited from earlier work
[5] = tested on: cleavage of Tyr from Met-enkephalin; parameters: method as in S-inhibitor; conditions: ref S-inhibitor; read-out: IC50, inhibition of cleavage of Tyr from Met-enkephalin; cited from earlier work
Aurora B = tested on: Aurora B; parameters: method as in S-inhibitor; conditions: ref S-inhibitor; cited from earlier work
[6] = target: T. brucei Aurora kinase-1 (TbAUK1); parameters: method as in S-inhibitor; conditions: ref S-inhibitor; cited from earlier work
Akt1 = tested on: Akt1; parameters: method as in S-inhibitor; conditions: ref S-inhibitor; cited from earlier work
Akt2 = tested on: Akt2; parameters: method as in S-inhibitor; conditions: ref S-inhibitor; cited from earlier work
Akt3 = tested on: Akt3; parameters: method as in S-inhibitor; conditions: ref S-inhibitor; cited from earlier work
S6K = tested on: S6K; parameters: method as in S-inhibitor; conditions: ref S-inhibitor; cited from earlier work
[7] = read-out: Parasite inhibition (%) mean, preliminary screen, mean
[8] = read-out: Parasite inhibition (%) mean

Compound: Cc1ccc(NC(=O)C2(c3ccc4c(c3)OC(F)(F)O4)CC2)nc1-c1cccc(C(=O)O)c1 [VX-809]
- EC50 (CFTR): 0.1 µM
- inhibition of growth at 5 µM [1, 7]: 9.4%

Compound: Cn1cnc2c(F)c(Nc3ccc(Br)cc3Cl)c(C(=O)NOCCO)cc21 [AZD6244 (Selumetinib)]
- IC50 (MEK1): 0.014 µM
- inhibition of growth at 5 µM [1, 7]: 0.6%

Compound: CC(=O)c1c(C)c2cnc(Nc3ccc(N4CCNCC4)cn3)nc2n(C2CCCC2)c1=O.O=S(=O)(O)CCO [PD 0332991 (Palbociclib) Isethionate]
- Parasite inhibition (%) mean [2]: 2.6%
- IC50 (CDK6): 0.016 µM

Compound: CCCNC(=O)Nc1ccc(Oc2ncnc3cc(OC)c(OC)cc23)cc1Cl [KRN 633]
- viability at 72 h (in vitro): 70.6%
- IC50 (VEGFR2): 0.16 µM
- IC50 (PDGFRα): 0.965 µM
- IC50 (PDGFRβ): 9.85 µM
- IC50 (VEGFR1): 0.17 µM
- inhibition of growth at 5 µM [1, 7]: 73.8%

Compound: C#CCC(Cc1cnc2nc(N)nc(N)c2n1)c1ccc(C(=O)N[C@@H](CCC(=O)O)C(=O)O)cc1 (stereo partly shown) [Pralatrexate (Folotyn)]
- IC50 (some cell lines): < 0.3 µM
- inhibition of growth at 5 µM [1, 7]: 20.4%

Compound: C[C@@H]1CN(CC(=O)Nc2ccc3c(c2)Cc2cccc(-c4cc(=O)cc(N5CCOCC5)o4)c2S3)C[C@H](C)O1 [KU-60019]
- IC50 (ATM): 0.0063 µM
- inhibition of growth at 5 µM [1, 7]: 2%

Compound: Cn1c(=O)c2[nH]cnc2n(C)c1=O.Cn1c(=O)c2[nH]cnc2n(C)c1=O.NCCN [Aminophylline (Truphylline)]
- Parasite inhibition (%) mean [2]: 0.8%
- IC50 (phosphodiesterase): 120 µM

Compound: O=C(NC1CCNCC1)c1[nH]ncc1NC(=O)c1c(Cl)cccc1Cl [AT7519]
- IC50 (CDK3/Cyclin E): 0.36 µM
- IC50 (CDK5/p35): 0.013 µM
- IC50 (CDK6/Cyclin D3): 0.17 µM
- inhibition of growth at 5 µM [1, 7]: -11.7%

Compound: CCCCCCCCCCCCc1ccc(S(=O)(=O)Nc2nncs2)cc1 [PHT-427]
- Ki (PDPK1): 5.2 µM
- inhibition of growth at 5 µM [1, 7]: 35.7%

Compound: CN1CCCCC1Cn1cc(C(=O)c2cc([N+](=O)[O-])ccc2I)c2ccccc21 (stereo not shown) [AM-1241]
- Ki (CB2): 0.0034 µM
- inhibition of growth at 5 µM [1, 7]: -8.8%

Compound: CCOc1ccn(-c2ccc(F)cc2)c(=O)c1C(=O)Nc1ccc(Oc2ccnc(N)c2Cl)c(F)c1 [BMS 777607]
- viability at 72 h (in vitro): 72%
- IC50 (c-Met): 0.0039 µM
- IC50 (Ron): 0.0018 µM
- IC50 (Tyro3): 0.0043 µM
- inhibition of growth at 5 µM [1, 7]: 80.6%

Compound: Nc1cccc2c1C(=O)N(C1CCC(=O)NC1=O)C2=O (stereo not shown) [Pomalidomide]
- IC50 [3]: 0.013 µM
- inhibition of growth at 5 µM [1, 7]: 0.8%

Compound: Nc1cccc(-c2cc3c(Oc4cccc(O)c4)ncnc3[nH]2)c1 [TWS119]
- IC50 (GSK-3β): 0.03 µM
- inhibition of growth at 5 µM [1, 7]: 40.8%

Compound: CC(C)C[C@@H](C(=O)N[C@H](C(=O)OC1CCCC1)c1ccccc1)[C@H](O)C(=O)NO [Tosedostat (CHR2797)]
- viability at 72 h (in vitro): 88.8%
- IC50 (LAP): 0.1 µM
- IC50 (PuSA): 0.15 µM
- IC50 (Aminopeptidase N): 0.22 µM
- inhibition of growth at 5 µM [1, 7]: 85.6%

Compound: C[C@@]1(c2cc(-c3cncnc3)c(F)cc2F)CCSC(N)=N1 [LY2811376]
- EC50 (Aβ secretion): ~0.3 µM
- inhibition of growth at 5 µM [1, 7]: -19.7%

Compound: O=S(=O)(NCCNC/C=C/c1ccc(Br)cc1)c1cccc2cnccc12 [H 89 2HCl, reference compound]
- viability at 72 h, 5 µM (in vitro; Host viability (%) Mean ± SD): 89.4 ± 4.6%
- viability at 72 h (in vitro): 89.4%
- IC50 (S6K1): 0.08 µM
- IC50 (MSK1): 0.12 µM
- IC50 (PKA): 0.135 µM
- IC50 (MAPKAP-K1b): 2.8 µM
- inhibition at 5 µM ([1]; read-out: Parasite inhibition (%) Mean ± SD): 83.5 ± 1.8%

Compound: COc1ccc2cc(-c3[nH]c(-c4ccc([S+](C)[O-])cc4)nc3-c3ccncc3)ccc2c1 (stereo not shown) [Tie2 kinase inhibitor]
- IC50 (Tie2): 0.25 µM
- inhibition of growth at 5 µM [1, 7]: 13%

Compound: BIX 02188
- Parasite inhibition (%) mean [2]: 13.7%
- IC50 (MEK5): 0.0043 µM

Compound: CCOc1ccc(Cc2cc([C@@H]3O[C@H](CO)[C@@H](O)[C@H](O)[C@H]3O)ccc2Cl)cc1 [Dapagliflozin]
- EC50 (hSGLT2): 0.0011 µM
- inhibition of growth at 5 µM [1, 8]: 1.9%

Compound: COc1cc(Nc2c(C#N)cnc3cc(OCCCN4CCN(C)CC4)c(OC)cc23)c(Cl)cc1Cl [Bosutinib (SKI-606)]
- inhibition of growth at 5 µM [1, 7]: 22.4%

Compound: CCNC(=O)c1cc2c(-c3cc(OCCN4CCCC4)c(Cl)cc3Cl)nc(N)nc2s1 [NVP-BEP800]
- IC50 (HSP90β): 0.058 µM
- inhibition of growth at 5 µM [1, 8]: 0.7%

Compound: CN1CCN(CCOc2cc(OC3CCOCC3)c3c(Nc4c(Cl)ccc5c4OCO5)ncnc3c2)CC1 [Saracatinib (AZD0530)]
- IC50 (v-Abl): 0.03 µM
- inhibition of growth at 5 µM [1, 7]: 32.6%

Compound: Nc1nc(=O)n([C@@H]2CS[C@H](CO)O2)cc1F [Emtricitabine (Emtriva)]
- IC50 (reverse transcriptase): 27.7 µM
- inhibition of growth at 5 µM [1, 8]: 0.4%

Compound: CCC[C@H](NC(=O)[C@H]1[C@H]2CCC[C@H]2CN1C(=O)[C@@H](NC(=O)[C@@H](NC(=O)c1cnccn1)C1CCCCC1)C(C)(C)C)C(=O)C(=O)NC1CC1 [Telaprevir (VX-950)]
- IC50 [4]: 0.35 µM
- inhibition of growth at 5 µM [1, 7]: 4.4%

Compound: CC(C)[C@H](O)C(=O)N[C@@H](C)C(=O)N[C@H]1C(=O)N(C)CCc2ccccc21 [Semagacestat (LY450139)]
- IC50 (γ-secretase; Aβ38, read-out: IC50, γ-secretase, Aβ38): 0.012 µM
- IC50 (γ-secretase; Aβ40, read-out: IC50, γ-secretase, Aβ40): 0.0121 µM
- IC50 (γ-secretase; Aβ42, read-out: IC50, γ-secretase, Aβ42): 0.0109 µM
- IC50 (Notch signaling): 0.0141 µM
- inhibition of growth at 5 µM [1, 7]: -9.8%

Compound: Bacitracin zinc
- Parasite inhibition (%) mean [2]: 9.0%
- IC50 [5]: 10 µM

Compound: CCS(=O)(=O)Nc1ccc2c(c1)/C(=C(/Nc1ccc(CN3CCCCC3)cc1)c1ccccc1)C(=O)N2 [Hesperadin]
- IC50 (Aurora B): 0.25 µM
- IC50 [6]: 0.04 µM
- inhibition of growth at 5 µM [1, 7]: 66.8%

Compound: Clc1ccc(C2(c3ccc(-c4cn[nH]c4)cc3)CCNCC2)cc1 [AT7867]
- IC50 (Akt1): 0.032 µM
- IC50 (Akt2): 0.017 µM
- IC50 (Akt3): 0.047 µM
- IC50 (S6K): 0.085 µM
- inhibition of growth at 5 µM [1, 7]: 46.4%
